Test results published in patent US10064909B2, “Compositions and methods for chronic use of a weight-gaining compound” (priority 2015, dated 2018).

Columns and labels:
Type in all cases: in vivo
[1] = Safety of daily capromorelin in cats for 91 days at an oral dose of 6 mg/kg
Procedure: This controlled study included two treatment groups with 4 adult cats receiving placebo (Group 1) and 8 adult cats receiving capromorelin (Formulation #9, as described above) (Group 2) for 91 consecutive days. All cats were offered food daily for a 6-hour period following an 11-day acclimation phase. All cats were weighed on Days −11, −1, 1, 14, 30, 59, 75, and 91. On Days 1 through 91, animals were orally administered capromorelin once daily via syringe at dose levels of 0 or 6 mg/kg. At one hour post-dose, all cats were offered food for a 6-hour period. Variables of interest included weight gain/loss, food consumption, clinical pathology, and serum analysis of IGF-1 and GH.
On Days 1, 30, 59, and 91, blood samples were collected prior to daily dose administration and at 8 hours post-dose and processed to serum for analysis of IGF-1 and GH levels. Hematology parameters included white blood count (WBC), hemoglobin (HgB), red blood count (RBC), platelet count (PLT), platelet morphology, hematocrit (HCT), mean corpuscular volume (MCV), mean corpuscular hemoglobin (MCH), WBC differential, RBC and WBC morphology, mean corpuscular hemoglobin concentration (MCHC), reticulocytes, and blood smear. Serum chemistry parameters measured included albumin (ALB), creatine kinase (CK), albumin/globulin ratio (A\G), globulin (GLOB), alkaline phosphatase (ALP), glucose (GLU), fructosamine, alanine aminotransferase (ALT), blood urea nitrogen (BUN), phosphorus (PHOS), calcium (Ca), potassium (K), chloride (Cl), sodium (Na), cholesterol (CHOL), total protein (TP), creatinine (CRE), total bilirubin (TBIL), BUN/creatinine ratio, and sodium/potassium ratio.
Urine samples were collected via cystocentesis and/or by collection in pans/trays from all cats for urinalysis. Before blood collection, all animals were fasted at least 8 hours. Urinalysis parameters measured included specific gravity (SG), pH (PH), color (COL), clarity (CLAR), blood (BLO), protein (UPRO), bilirubin (UBIL), glucose (UGLU), ketones (KET), and the microscopic examination of the sediments for RBC/hpf, WBC/hpf, bacteria (BACT), epithelial cells, mucus, casts, and crystals.

[2] = Two-week oral toxicity study in cats
Procedure: This study determined the safety of capromorelin when administered orally to cats. Groups of 3 male and 3 female (n=6/group) mixed breed cats were given capromorelin as an oral capsule once daily at doses of 9, 15, 30 and 60 mg/kg for 14 consecutive days. A similar group was given microcrystalline cellulose as a placebo control. All animals were observed daily for clinical signs and assessed for food consumption, with bodyweights recorded 7 days before dosing and again at euthanasia. Other measurements included periodic clinical pathology evaluations of hematology, serum chemistry and urinalysis. After the dosing period, cats were euthanized and necropsied.

[3] = Pilot clinical field study in cats with CKD (Example 11); details: for mean bodyweight change (±SEM): 2 mg/kg oral once daily
Procedure: This placebo controlled, masked non-GCP study was to confirm the safety and effectiveness (weight gain) of AT-002 (capromorelin) at a dose of 2 mg/kg administered once daily for 90 days in cats with CKD and a history of losing weight.
A total of 42 cats were screened at 7 veterinary clinics. Of these 42 cats, 1 was a screen failure, resulting in 41 cats being enrolled and randomized to 1 of 2 treatments, capromorelin oral solution (AT-002) or placebo (CP). Eligible study candidates included cats that presented to the veterinary clinic with a diagnosis of CKD (IRIS stages II, III or IV) and a documented decrease in bodyweight over the previous 6 months. Test articles were provided as flavored oral solutions and were administered orally once daily beginning on Day 0 for 90±3 days, AT-002 at a dose rate of 2 mg/kg and CP at the equivalent dose volume to AT-002. The Investigator, study staff and cat Owners were masked to treatment. Cats were re-evaluated at the clinic on Day 14±1, Day 30±2, Day 60±3 and Day 90±3.
The key variable for the determination of effectiveness was bodyweight. Other effectiveness variables measured included body condition score, muscle condition score, quality of life assessments (unvalidated) and owner appetite assessments (unvalidated). Safety was assessed by physical examinations, clinical pathology testing (hematology and serum chemistry), urinalysis, serum IGF-1 levels and adverse event monitoring.

[4] = 2 mg/kg, 90 days, PPP1, not statistically significant vs placebo

With `CN1N=C2CCN(C(=O)[C@@H](COCc3ccccc3)NC(=O)C(C)(C)N)C[C@@]2(Cc2ccccc2)C1=O.O=C(O)C(O)C(O)C(=O)O` [capromorelin, N-[(2R)-1-[(3aR)-2-methyl-3-oxo-3a-(phenylmethyl)-6,7-dihydro-4H-pyrazolo[4,3-c]pyridin-5-yl]-1-oxo-3-(phenylmethoxy)propan-2-yl]-2-amino-2-methylpropanamide L-tartrate] the “resolution of post-dose clinical observations” value ([1]; 6 mg/kg) was “usually resolved within five minutes”, the “mean rate of bodyweight change” value ([1]; 6 mg/kg oral once daily, 91 days) was 0.0086 and the “mean bodyweight change from baseline (Day 1)” value ([1]; 6 mg/kg oral once daily, Day 14) was 0.26 kg. The “mean bodyweight change from baseline (Day 1)” value ([1]; 6 mg/kg oral once daily, Day 30) was 0.46 kg, the “mean bodyweight change from baseline (Day 1)” value ([1]; 6 mg/kg oral once daily, Day 59) was 0.64 kg and the “mean bodyweight change from baseline (Day 1)” value ([1]; 6 mg/kg oral once daily, Day 75) was 0.73 kg. The “mean bodyweight change from baseline (Day 1)” value ([1]; 6 mg/kg oral once daily, Day 91) was 0.80 kg, the “food consumption, mean change from baseline” value ([1]; 6 mg/kg oral once daily, baseline average of Days -3 through -1) was 14.95 grams and the “mean rate of bodyweight change, factor vs placebo” value ([1]; 6 mg/kg, 0.0086 vs 0.0010 for placebo) was 8.6. The chronic hyperglycemia ([1]; 6 mg/kg, 91 days) was “no chronic hyperglycemia”, the “food consumption, mean rate of change” value ([1]; 6 mg/kg, a rate of one = one more gram of food consumed each day) was 1.2396 and the creatinine levels ([1]; 6 mg/kg, acclimation to Day 91, reference range 0.6 to 2.4 mg/dL) was “within the normal reference range”. The BUN levels ([1]; 6 mg/kg, acclimation to Day 91, reference range 14 to 36 mg/dL) was “within the normal reference range”, the serum glucose levels ([1]; 6 mg/kg, compared to the placebo group) was “increased” and the serum fructosamine ([1]; 6 mg/kg, reference range 191 to 349 μmol/L) was “No fructosamine values exceeded the normal reference range”. The “most common clinical observations” value ([1]; 6 mg/kg, seen immediately post-dose) was “hypersalivation (ptyalism), lip smacking, emesis, and head shaking”, the NOAEL at 14 days ([2]; both sexes, mixed breed, cat, in vivo, cats, oral capsule once daily, 14 days, read-out: no-observed-adverse-effect-level (NOAEL)) was 15 mg/kg/day and the “30 mg/kg dose level relative to proposed clinically effective dose” value ([2]; cats) was 15 times. For the same compound, the clinical pathology changes ([2]; cats, 15 to 60 mg/kg dosing groups, sporadic) was “increases in serum and urine glucose”, the “clinical signs related to capromorelin” value ([2]; cats, 30 and 60 mg/kg treatment groups) was “emesis, sporadic salivation, and lethargy/depression” and the “tissue findings at necropsy (gross and microscopic)” value ([2]; cats, 14 days) was “not associated with any abnormal tissue findings”. For the same compound, the tolerability ([2]; cats, oral capsule 9, 15, 30 and 60 mg/kg, 14 days) was “well tolerated”, the “mean absolute and relative liver weights” value ([2]; females 30 and 60 mg/kg, absolute liver weights in males at all dosages) was “increased” and the “mean body condition score (scale of 1 to 9)” value [3, 4] was “increased slightly”. For the same compound, the “mean muscle condition score (scale of 0 to 3)” value [3, 4] was “increased”, the “% Success, success defined as greater than 0% gain” value (“% Success … as greater than 0% gain” below) ([3]; 2 mg/kg, Day 14, PPP2) was 86.7% and the “% Success, success defined as maintenance or gain” value (“% Success … as maintenance or gain” for short) ([3]; 2 mg/kg, Day 14, PPP2) was 86.7%. The “Body weight successes per group, success defined as greater than 0% gain” value ([3]; 2 mg/kg, Day 14, PPP2) was 13/15, the “Bodyweight successes per group, success defined as maintenance or gain” value (“Bodyweight successes per group” for short) ([3]; 2 mg/kg, Day 14, PPP2) was 13/15 and the “% Success … as greater than 0% gain” value ([3]; 2 mg/kg, Day 30, PPP2) was 86.7%. For the same compound, the “% Success … as maintenance or gain” value ([3]; 2 mg/kg, Day 30, PPP2) was 93.3%, the “Body weight successes per group, success defined as greater than 0% gain” value ([3]; 2 mg/kg, Day 30, PPP2) was 13/15 and the “Bodyweight successes per group” value ([3]; 2 mg/kg, Day 30, PPP2) was 14/15. The “% Success … as greater than 0% gain” value ([3]; 2 mg/kg, Day 60, PPP2) was 66.7%, the “% Success … as maintenance or gain” value ([3]; 2 mg/kg, Day 60, PPP2) was 80.0% and the “Body weight successes per group, success defined as greater than 0% gain” value ([3]; 2 mg/kg, Day 60, PPP2) was 10/15. For the same compound, the “Bodyweight successes per group” value ([3]; 2 mg/kg, Day 60, PPP2) was 12/15, the “change in mean descriptive quality of life monthly score (±SEM) from Day 0” value ([3]; 2 mg/kg, Day 90) was 0.00±0.11 and the “% Success … as greater than 0% gain” value ([3]; 2 mg/kg, Day 90, PPP2) was 73.3%. The “% Success … as maintenance or gain” value ([3]; 2 mg/kg, Day 90, PPP2) was 80.0%, the “Body weight successes per group, success defined as greater than 0% gain” value ([3]; 2 mg/kg, Day 90, PPP2) was 11/15 and the “Bodyweight successes per group” value ([3]; 2 mg/kg, Day 90, PPP2) was 12/15. For the same compound, the “mean descriptive owner appetite assessment monthly scores” value ([3]; 2 mg/kg, compared to placebo, Days 30, 60, 90, PPP1) was “did not change significantly”, the “mean descriptive quality of life monthly score (±SEM), scale of 1 to 5” value ([3]; capromorelin group, Day 0 (baseline)) was 3.85±0.19 and the tolerability ([3]; cats with CKD, 2 mg/kg once daily, 90 days) was “well-tolerated”. The “mean bodyweight change (±SEM)” value ([3]; cats with CKD, Day 14, n = 13, PPP1) was 2.93% ± 0.70%, the “mean bodyweight change (±SEM)” value ([3]; cats with CKD, Day 30, n = 13, PPP1, L-tartrate, 2 mg/kg) was 3.86%±0.85% and the “mean bodyweight change (±SEM)” value ([3]; cats with CKD, Day 30, n = 13, PPP1, listed as Capromorelin, L-tartrate, 2 mg/kg) was 3.86% ± 0.85%. The “mean bodyweight change (±SEM)” value ([3]; cats with CKD, Day 60, n = 13, PPP1, L-tartrate, 2 mg/kg) was 4.06%±1.42%, the “mean bodyweight change (±SEM)” value ([3]; cats with CKD, Day 60, n = 13, PPP1, listed as Capromorelin, L-tartrate, 2 mg/kg) was 4.06% ± 1.42% and the “mean bodyweight change (±SEM)” value ([3]; cats with CKD, Day 90, n = 13, PPP1, L-tartrate, 2 mg/kg) was 3.59%±1.59%. For the same compound, the “mean bodyweight change (±SEM)” value ([3]; cats with CKD, Day 90, n = 13, PPP1, listed as Capromorelin, L-tartrate, 2 mg/kg) was 3.59% ± 1.59%.
